pIC50: −log10 of the molar value.
Tests used:
MAPK1(ERK2) enzyme = biological target: T1, MAPK1(ERK2) enzyme (Homo sapiens, UniProt P28482); assay: Z-Lyte Kinase Assay of ERK2; type: biochemical; settings: read-out: Example 18 IC50
T1 construct: purchased Invitrogen PV3313
Description: Example 18: Z-Lyte Kinase Assay of ERK2
1. Materials and Reagents:
2. Reaction Steps: Plate Map
3. Solution Preparation • 1) 1.33× Kinase Buffer: Dilute 5× Kinase Buffer to 1.33× with ddH2O • 2) 4× Test Compounds: Serially dilute the test compounds to 4 folds of the concentrations desired, keeping the DMSO concentration at 8%. The final concentrations are 1, 0.33, 0.11, 0.037, 0.012, 0.004, 0.0014, 0.00046 μM, and the final concentration of DMSO is 2%. • 3) Kinase/Peptide Mixture (P/K solution): Prepare Kinase/Peptide Mixture by diluting the kinase to 0.6 μg/ml and the Z-LYTE™ Ser/Thr3 peptide to 4 μM in 1.33× Kinase Buffer. Mix gently by pipetting. • 4) Phospho-peptide Solution (PP solution): Add 0.4 μl of Z-LYTE™ Ser/Thr3 Phospho-peptide to 99.6 μl of 1.33× Kinase Buffer. • 5) ATP Solution: Prepare ATP Solution by diluting the 10 mM of ATP in 1.33× Kinase Buffer to 100 μM. • 6) Development Solution: Dilute Development Reagent A with Development Buffer as 1:1024. 4. Reaction • 1) Kinase reaction (10 μl of Volume) • a. In a 384-well plate, add 2.5 μl of 4× test Cpds to each well except C1, C2, C3 wells Add 2.5 μl of 8% DMSO to C1, C2, C3 wells • b. Put the plate on ice • c. Add 5 μl of P/K mixture to each test Cpd wells and C1, C2 wells • d. Add 5 μl of PP Solution to C3 well • e. Add 2.5 μl of 1.33× kinase buffer to C1 and C3 wells • f. Add 2.5 μl of 4×ATP Solution to each test Cpd wells and C2 well, respectively. Shake the plate for 30 Sec and centrifuge (1500 rpm, 1 min) • g. Seal the plate to protect from the light and incubate the plate for 1 hour at RT (25-30° C.) • 2) Development reaction • a. Add 5 μl of the Development solution to all wells • b. Shake the plate for 30 sec and centrifuge (1500 rpm, 1 min) • c. Seal the plate to protect from the light and incubate the plate for 1 hour at RT (25-30° C.) • 3) Stop and read • a. Add 5 μl of the Stop reagent to all wells • b. Shake the plate for 30 sec and centrifuge (1500 rpm, 1 min) • c. Measure the value of coumarin (Ex400 nm, Em445 nm) and fluorescein (Ex400 nm, Em520 nm), respectively. 5. Data Analysis Emission Ratio(ER)=Coumarin Emission (445 nm)/Fluorescein Emission (520 nm) % Phosphorylation=1−[ER×C3520nm−C3445nm]/[(C1445nm−C3445nm)+ER×(C3520nm−C1520nm)] Inhibition rate (IR)=1−% Photest Cpd% PhoC2 6. IC50 Value: determine IC50 with add-in software for Microsoft Excel, XLfit™ (version 2.0) from ID Business Solutions (Guildford, UK)

[1] = test system: p-RSK (Thr359) in colo205 cells; assay: p-RSK (Thr359) Acumen Assay in Colo205; type: cell-based; settings: Homo sapiens, COLO 205, 1 hour compound incubation, read-out: Example 19 IC50
Description: Example 19: p-RSK (Thr359) Acumen Assay in Colo205
• Phospho-p90RSK (Thr359) (D1E9) Rabbit mAb: cell signal, #8753 • Alexa Fluor® 488 donkey anti-rabbit IgG: invitrogen, #A-21206 • Propidium Iodide: Sigma, #p4170 • 4% Paraformaldehyde: SCRC, #DF021 • 10% Triton X-100: PIERCE, #28314 • 96-well plate (black with clear bottom): BD, #354640 • Acumen® eX3 (A Multilaser Microplate Cytometer For Enhanced High Content Screening): TTP LabTech 3. Acumen Assay Protocol • Seed 4000 cells in 100 μl 10% FBS/well into 96-well plate, incubate at 37° C., 5% CO2, overnight. • Dilute the compound to 3, 1, 0.33, 0.11, 0.037, 0.012, 0.004, 0.001 μM, keeping the DMSO concentration at 5%. Add 10 μl of diluted compound per well and incubate at 37° C., 5% CO2 for 1 hour. • Add 100 μl of 4% pre-warmed Paraformaldehyde (2% final), and incubate for 45 min at room temperature. • Remove paraformaldehyde solutions. Add 100 μl of ice-cold 0.1% Triton to fixed cells at room temperature for 30 min. • Wash twice with 150 μl PBS and incubate with 100 μl blocking buffer (1% BSA, in PBS) for 2˜3 hours at room temperature, seal the plate. • Wash once with PBS and incubate with 35 μl p-RSK (Thr359) (1:1000 dilution) overnight at 4° C. Seal the plate. • Wash twice with PBS and incubate for 1.5 hours at room temperature with 35 μl of Alexa Fluor® 488 donkey anti-rabbit IgG at a 1:1,000 dilution in antibody dilution buffer (0.1% BSA, in PBS). Cover plate in foil to keep out of light. • Wash twice with 150 μl PBS. Add 35 μl of 1.5 μM Propidium Iodide stock to each well to determine cell number, seal the plate. • Incubate at room temperature for 30 min. Load the plate into the Acumen Explorer and scan with the appropriate instrument settings. 4. Data Analysis
[formula] Note: • Percentagecompound well represents the positive percentage of cells treated by compound. • Percentagemin well represents the positive percentage of cells treated with 3 uM GDC0994. • Percentagemax well represents the positive percentage of cells without compounds treatment. 5. IC50 Value: determine IC50 with add-in software for Microsoft Excel, XLfit™ (version 2.0) from ID Business Solutions (Guildford, UK)

T1 sequence (P28482 whole entry): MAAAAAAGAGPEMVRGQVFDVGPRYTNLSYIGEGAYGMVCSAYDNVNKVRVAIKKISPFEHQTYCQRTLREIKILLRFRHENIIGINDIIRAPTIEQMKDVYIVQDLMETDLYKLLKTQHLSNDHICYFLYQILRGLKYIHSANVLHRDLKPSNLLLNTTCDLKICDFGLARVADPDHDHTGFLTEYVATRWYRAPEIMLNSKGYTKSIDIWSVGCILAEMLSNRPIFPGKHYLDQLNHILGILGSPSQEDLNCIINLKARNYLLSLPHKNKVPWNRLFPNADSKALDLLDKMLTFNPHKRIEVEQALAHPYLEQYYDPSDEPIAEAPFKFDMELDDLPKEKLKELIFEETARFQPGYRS

## Cc1cnc(Nc2ccnn2C)nc1-c1cc2n(c1)C[C@H](CF)n1c-2nnc1C(F)(F)c1c(F)cccc1F [Compound 189]
MAPK1(ERK2) enzyme
  pIC50: 8.00 to 8.30
[1]
  pIC50: ≥ 7.00

## Cc1cnc(Nc2ccnn2CCO)nc1-c1cc2n(c1)C[C@H](C)n1c-2nnc1C(F)(F)c1ccccc1F [Compound 293]
MAPK1(ERK2) enzyme
  pIC50: 8.00 to 8.30
[1]
  pIC50: ≥ 7.00

## Cc1cnc(Nc2ccnn2C)cc1-c1cc2n(c1)C[C@H](CF)n1c-2nnc1C(F)(F)c1ncccc1Cl [Compound 174]
MAPK1(ERK2) enzyme
  pIC50: ≥ 8.30
[1]
  pIC50: ≥ 7.00

## Cn1nccc1Nc1cc(-c2cc3n(c2)C[C@H](CF)n2c-3nnc2C(F)(F)c2ccnn2C)c(Cl)cn1 [Compound 154]
MAPK1(ERK2) enzyme
  pIC50: ≥ 8.30
[1]
  pIC50: ≥ 7.00

## Cn1nccc1Nc1cc(-c2cc3n(c2)CCCn2c-3nnc2C2(C(F)(F)F)CC2)c(Cl)cn1 [Compound 21]
MAPK1(ERK2) enzyme
  pIC50: ≥ 8.30
[1]
  pIC50: < 7.00

## Cc1cnc(Nc2ccnn2C)cc1-c1cc2n(c1)C[C@H](CF)n1c-2nnc1C(F)(F)C(F)F [Compound 62]
MAPK1(ERK2) enzyme
  pIC50: ≥ 8.30
[1]
  pIC50: ≥ 7.00

## Cc1cnc(Nc2ccnn2C)cc1-c1cc2n(c1)C[C@H](F)Cn1c-2nnc1C(F)(F)C(F)(F)F [Compound 75]
MAPK1(ERK2) enzyme
  pIC50: ≥ 8.30
[1]
  pIC50: < 7.00

## Cn1nccc1Nc1cc(-c2cc3n(c2)CCCn2c-3nnc2C2(C(F)(F)F)CCC2)c(Cl)cn1 [Compound 30]
MAPK1(ERK2) enzyme
  pIC50: ≥ 8.30
[1]
  pIC50: ≥ 7.00

## Cc1cnc(Nc2ccnn2C)nc1-c1cc2n(c1)CCn1c-2nnc1C(F)(F)c1ccccc1F [Compound 70]
MAPK1(ERK2) enzyme
  pIC50: ≥ 8.30
[1]
  pIC50: ≥ 7.00

## Cn1nccc1Nc1cc(-c2cc3n(c2)CC(F)(F)Cn2c-3nnc2C2(C(F)(F)F)CCC2)c(Cl)cn1 [Compound 171]
MAPK1(ERK2) enzyme
  pIC50: < 8.00
[1]
  pIC50: ≥ 7.00

## Cn1nccc1Nc1cc(-c2cc3n(c2)CC2(CCC2)Cn2c-3nnc2C2(C(F)(F)F)CCC2)c(Cl)cn1 [Compound 55, 5-chloro-N-(1-methyl-1H-pyrazol-5-yl)-4-(3′-(1-(trifluoromethyl)cyclobutyl)-5′H,7′H-spiro[cyclobutane-1,6′-pyrrolo[1,2-a][1,2,4]triazolo[3,4-c][1,4]diazepin]-10′-yl)pyridin-2-amine]
MAPK1(ERK2) enzyme
  pIC50: 8.00 to 8.30
[1]
  pIC50: ≥ 7.00

## Cn1nccc1Nc1cc(-c2cc3n(c2)CCn2c-3nnc2C2(C(F)(F)F)CCC2)c(Cl)cn1 [Compound 20]
MAPK1(ERK2) enzyme
  pIC50: ≥ 8.30
[1]
  pIC50: ≥ 7.00

## Cc1cnc(Nc2ccnn2C)cc1-c1cc2n(c1)CC1(Cn3c-2nnc3C(F)(F)C(F)F)CC(F)(F)C1 [Compound 168]
MAPK1(ERK2) enzyme
  pIC50: 8.00 to 8.30
[1]
  pIC50: < 7.00

## Cn1nccc1Nc1cc(-c2cc3n(c2)CCCCn2c-3nnc2C2(C(F)(F)F)CCC2)c(Cl)cn1 [Compound 261]
MAPK1(ERK2) enzyme
  pIC50: < 8.00
[1]
  pIC50: ≥ 7.00

## Cc1cnc(Nc2c3c(nn2C)CCC3)nc1-c1cc2n(c1)C[C@H](CF)n1c(Cc3ccccc3F)nnc1-2 [Compound 150]
MAPK1(ERK2) enzyme
  pIC50: ≥ 8.30
[1]
  pIC50: ≥ 7.00

## Cn1nccc1Nc1cc(-c2cc3n(c2)CCn2c-3nnc2C2(C(F)F)CCC2)c(Cl)cn1 [Compound 46]
MAPK1(ERK2) enzyme
  pIC50: ≥ 8.30
[1]
  pIC50: ≥ 7.00

## Cc1cnc(Nc2ccnn2C)nc1-c1cc2n(c1)CC1(CC1)n1c-2nnc1C1(C(F)(F)F)CCC1 [Compound 250]
MAPK1(ERK2) enzyme
  pIC50: ≥ 8.30
[1]
  pIC50: ≥ 7.00

## CCn1nccc1Nc1ncc(C)c(-c2cc3n(c2)C[C@H](C)n2c-3nnc2C(F)(F)c2ccccc2F)n1 [Compound 289]
MAPK1(ERK2) enzyme
  pIC50: < 8.00
[1]
  pIC50: ≥ 7.00

## Cc1cnc(Nc2ccnn2C)cc1-c1cc2n(c1)C[C@H](CF)n1c-2nnc1C(F)(F)n1cc(Cl)cn1 [Compound 153]
MAPK1(ERK2) enzyme
  pIC50: ≥ 8.30
[1]
  pIC50: ≥ 7.00

## Cn1nccc1Nc1cc(-c2cc3n(c2)CC2(CC2)n2c-3nnc2C(F)(F)C(F)F)c(F)cn1 [Compound 235]
MAPK1(ERK2) enzyme
  pIC50: 8.00 to 8.30
[1]
  pIC50: ≥ 7.00

## Cc1cnc(Nc2ccnn2C)nc1-c1cn2c(n1)-c1nnc(C(F)(F)c3ccccc3Cl)n1[C@H](CF)C2 [Compound 224]
MAPK1(ERK2) enzyme
  pIC50: ≥ 8.30
[1]
  pIC50: ≥ 7.00

## Cn1nccc1Nc1cc(-c2cc3n(c2)CCCn2c(COc4ccccc4F)nnc2-3)c(Cl)cn1 [Compound 38]
MAPK1(ERK2) enzyme
  pIC50: < 8.00
[1]
  pIC50: ≥ 7.00

## CCCn1nccc1Nc1ncc(C)c(-c2cc3n(c2)C[C@H](C)n2c-3nnc2C(F)(F)c2ccccc2F)n1 [Compound 291]
MAPK1(ERK2) enzyme
  pIC50: < 8.00
[1]
  pIC50: ≥ 7.00

## Cn1nccc1Nc1cc(-c2cc3n(c2)CCCn2c-3nnc2C(C)(C)C(F)(F)F)c(Cl)cn1 [Compound 22]
MAPK1(ERK2) enzyme
  pIC50: ≥ 8.30
[1]
  pIC50: < 7.00

## Cc1cnc(Nc2ccnn2C)nc1-c1cc2n(c1)C[C@H](C)n1c-2nnc1C1(C(F)(F)F)CCC1 [Compound 238]
MAPK1(ERK2) enzyme
  pIC50: ≥ 8.30
[1]
  pIC50: < 7.00

## Cn1nccc1Nc1cc(-c2cc3n(c2)CCCn2c-3nnc2N2CCCc3ccccc32)c(Cl)cn1 [Compound 54]
MAPK1(ERK2) enzyme
  pIC50: 8.00 to 8.30
[1]
  pIC50: ≥ 7.00

## Cn1nccc1Nc1cc(-c2cc3n(c2)C[C@H](CF)n2c-3nnc2C(F)(F)c2ccccc2F)c(F)cn1 [Compound 145]
MAPK1(ERK2) enzyme
  pIC50: ≥ 8.30
[1]
  pIC50: ≥ 7.00

## Cc1cnc(Nc2ccnn2C)cc1-c1cc2n(c1)C[C@H](CF)n1c-2nnc1C(F)(F)c1ccccc1 [Compound 86]
MAPK1(ERK2) enzyme
  pIC50: 8.00 to 8.30
[1]
  pIC50: ≥ 7.00

## Cn1nccc1Nc1cc(-c2cc3n(c2)C[C@H](CF)n2c-3nnc2C(F)(F)c2ncccc2F)c(Cl)cn1 [Compound 194]
MAPK1(ERK2) enzyme
  pIC50: ≥ 8.30
[1]
  pIC50: ≥ 7.00

## Cc1cnc(Nc2ccnn2C)cc1-c1cc2n(c1)CC1(COC1)Cn1c-2nnc1C1(C(F)(F)F)CCC1 [Compound 306]
MAPK1(ERK2) enzyme
  pIC50: ≥ 8.30
[1]
  pIC50: ≥ 7.00

## Cn1nccc1Nc1cc(-c2cc3n(c2)CCCn2c-3nnc2[C@H](O)C2CCCCC2)c(Cl)cn1 [Compound 24]
MAPK1(ERK2) enzyme
  pIC50: 8.00 to 8.30
[1]
  pIC50: < 7.00

## Cc1cn2cc(-c3ccnc(Nc4ccnn4C)n3)cc2c2nnc(C3(C(F)(F)F)CCC3)n12 [Compound 232]
MAPK1(ERK2) enzyme
  pIC50: ≥ 8.30
[1]
  pIC50: ≥ 7.00

## C[C@H](Oc1ccccc1F)c1nnc2n1CC(C)(C)Cn1cc(-c3ccnc(Nc4ccnn4C)n3)cc1-2 [Compound 44, (S)-4-(3-(1-(2-fluorophenoxy)ethyl)-6,6-dimethyl-6,7-dihydro-5H-pyrrolo[1,2-a][1,2,4]triazolo[3,4-c][1,4]diazepin-10-yl)-N-(1-methyl-1H-pyrazol-5-yl)pyrimidin-2-amine]
MAPK1(ERK2) enzyme
  pIC50: < 8.00
[1]
  pIC50: < 7.00

## Cc1cnc(Nc2ccnn2C)nc1-c1cc2n(c1)C[C@H](CF)n1c-2nnc1C(F)(F)c1ccccc1Cl [Compound 176]
MAPK1(ERK2) enzyme
  pIC50: 8.00 to 8.30
[1]
  pIC50: ≥ 7.00
